Source: patent US9617283B2, “Bicyclic heterocycle compounds and their uses in therapy” (ASTEX THERAPEUTICS LIMITED, priority 2012, dated 2017)
Counter-ions that a name gives are not always drawn.

Tested on: EVSA-T (human breast carcinoma)
Test: Anti-proliferative activity, Alamar Blue assay, EVSA-T
Assay type: cell-based
Conditions: EVSA-T cell line, 72 hours, Alamar Blue; dihydrochloride; read-out: EVSA-T prolif

| EC50 [nM] | Compound |
| --- | --- |
| 6.5 | CCCC(F)(F)c1cc2c(cn1)C(C)(C)CN2C(=O)CN1C[C@@H](C)NC[C@@H]1CN1CC(CC)OCC1=O (single isomer, unassigned) [Example 89, 4-{[(2R,5R)-1-{2-[6-(1,1-Difluorobutyl)-3,3-dimethyl-1H,2H,3H-pyrrolo[3,2-c]pyridin-1-yl]-2-oxoethyl}-5-methylpiperazin-2-yl]methyl}-(R or S)-6-ethylmorpholin-3-one dihydrochloride] |
| 1.7 | CCC1CC(=O)N(C[C@H]2CN[C@H](C)CN2CC(=O)N2CC(C)(C)c3ncc(Cc4ccc(F)cc4)cc32)C1 (single isomer, unassigned) [Example 86, (4R or 4S)-4-Ethyl-1-{[(2R,5R)-1-(2-{6-[(4-fluorophenyl)methyl]-3,3-dimethyl-1H,2H,3H-pyrrolo[3,2-b]pyridin-1-yl}-2-oxoethyl)-5-methylpiperazin-2-yl]methyl}pyrrolidin-2-one dihydrochloride] |
| 1.2 | CCC1CC(=O)N(C[C@H]2CN[C@H](C)CN2CC(=O)N2CC(C)(C)c3cnc(Cc4ccc(F)cc4F)cc32)C1 (single isomer, unassigned) [Example 87, (4R or 4S)-1-{[(2R,5R)-1-(2-{6-[(2,4-Difluorophenyl)methyl]-3,3-dimethyl-1H,2H,3H-pyrrolo[3,2-c]pyridin-1-yl}-2-oxoethyl)-5-methylpiperazin-2-yl]methyl}-4-ethylpyrrolidin-2-one dihydrochloride] |

Same assay, conditions: Homo sapiens, EVSA-T, 72 h, EVSA-T cell line, 72 hours, Alamar Blue; read-out: EVSA-T prolif

| EC50 [nM] | Compound |
| --- | --- |
| 9 | C[C@@H]1CN(CC(=O)N2CC(C)(C)c3ncc(Cc4ccc(F)cc4)cc32)[C@@H](CN2CC(C)(C)OCC2=O)CN1 [Example 97, 4-{[(2R,5R)-1-(2-{6-[(4-Fluorophenyl)methyl]-3,3-dimethyl-1H,2H,3H-pyrrolo[3,2-b]pyridin-1-yl}-2-oxoethyl)-5-methylpiperazin-2-yl]methyl}-6,6-dimethylmopholin-3-one dihydrochloride] |
| 7.5 | C[C@@H]1CN(CC(=O)N2CC(C)(C)c3nnc(Cc4ccc(F)cc4F)cc32)[C@@H](CN2Cc3c(C#N)cccc3C2=O)CN1 [Example 119, 2-{[(2R,5R)-1-(2-{3-[(2,4-Difluorophenyl)methyl]-7,7-dimethyl-5H,6H,7H-pyrrolo[3,2-c]pyridazin-5-yl}-2-oxoethyl)-5-methylpiperazin-2-yl]methyl}-1-oxo-2,3-dihydro-1H-isoindole-4-carbonitrile dihydrochloride] |
| 12 | C[C@@H]1CN(CC(=O)N2CC(C)(C)c3ncc(Cc4ccc(F)cc4)cc32)[C@@H](CN2C[C@H](C)N(C)CC2=O)CN1 [Example 43, (5S)-1-{[(2R,5R)-1-(2-{6-[(4-Fluorophenyl)methyl]-3,3-dimethyl-1H,2H,3H-pyrrolo[3,2-b]pyridin-1-yl}-2-oxoethyl)-5-methylpiperazin-2-yl]methyl}-4,5-dimethylpiperazin-2-one dihydrochloride] |

Same assay, conditions: Homo sapiens, EVSA-T, read-out: EC50 in EVSA-T cell line assays

| Compound | EC50 [nM] |
| --- | --- |
| C[C@@H]1CN(CC(=O)N2CC(C)(C)c3nnc(Cc4ccc(F)cc4F)cc32)[C@@H](CN2Cc3ccccc3C2=O)CN1 [Example 79, 2-{[(2R,5R)-1-(2-{3-[(2,4-Difluorophenyl)methyl]-7,7-dimethyl-5H,6H,7H-pyrrolo[3,2-c]pyridazin-5-yl}-2-oxoethyl)-5-methylpiperazin-2-yl]methyl}-2,3-dihydro-1H-isoindol-1-one dihydrochloride] | < 1000 |

Same assay, conditions: Homo sapiens, EVSA-T; read-out: EC50 in EVSA-T cell line assays

| EC50 [nM] | Compound |
| --- | --- |
| < 1000 | C[C@@H]1CN(CC(=O)N2CC(C)(C)c3ncc(Cc4ccc(F)cc4)cc32)[C@@H](CN2CC(C)(C)OCC2=O)CN1 [Example 97, 4-{[(2R,5R)-1-(2-{6-[(4-Fluorophenyl)methyl]-3,3-dimethyl-1H,2H,3H-pyrrolo[3,2-b]pyridin-1-yl}-2-oxoethyl)-5-methylpiperazin-2-yl]methyl}-6,6-dimethylmopholin-3-one dihydrochloride] |
| < 1000 | C[C@@H]1CN(CC(=O)N2CC(C)(C)c3nnc(Cc4ccc(F)cc4F)cc32)[C@@H](CN2Cc3ncccc3C2=O)CN1 [Example 64, 6-{[(2R,5R)-1-(2-{3-[(2,4-Difluorophenyl)methyl]-7,7-dimethyl-5H,6H,7H-pyrrolo[3,2-c]pyridazin-5-yl}-2-oxoethyl)-5-methylpiperazin-2-yl]methyl}-5H,6H,7H-pyrrolo[3,4-b]pyridin-5-one] |
| < 1000 | C[C@@H]1CN(CC(=O)N2CC(C)(C)c3nnc(Cc4ccc(F)cc4)cc32)[C@@H](CN2Cc3ncccc3C2=O)CN1 [Example 65, 6-{[(2R,5R)-1-(2-{3-[(4-Fluorophenyl)methyl]-7,7-dimethyl-5H,6H,7H-pyrrolo[3,2-c]pyridazin-5-yl}-2-oxoethyl)-5-methylpiperazin-2-yl]methyl}-5H,6H,7H-pyrrolo[3,4-b]pyridin-5-one] |
| < 1000 | CCCC(F)(F)c1cc2c(nn1)C(C)(C)CN2C(=O)CN1C[C@@H](C)NC[C@@H]1CN1Cc2ncccc2C1=O [Example 67, 6-{[(2R,5R)-1-{2-[3-(1,1-Difluorobutyl)-7,7-dimethyl-5H,6H,7H-pyrrolo[3,2-c]pyridazin-5-yl]-2-oxoethyl}-5-methylpiperazin-2-yl]methyl}-5H,6H,7H-pyrrolo[3,4-b]pyridin-5-one] |
| < 1000 | C[C@@H]1CN(CC(=O)N2CC(C)(C)c3nnc(Cc4ccc(F)cc4F)cc32)[C@@H](CN2Cc3c(C#N)cccc3C2=O)CN1 [Example 119, 2-{[(2R,5R)-1-(2-{3-[(2,4-Difluorophenyl)methyl]-7,7-dimethyl-5H,6H,7H-pyrrolo[3,2-c]pyridazin-5-yl}-2-oxoethyl)-5-methylpiperazin-2-yl]methyl}-1-oxo-2,3-dihydro-1H-isoindole-4-carbonitrile dihydrochloride] |

The next lines start with the molecule.

| Compound | EC50 [nM] |
| --- | --- |
| CCCC(F)(F)c1cc2c(nn1)C(C)(C)CN2C(=O)CN1C[C@@H](C)NC[C@@H]1CN1C(=O)CO[C@@H](C)[C@H]1C [Example 58, (5R,6S)-4-{[(2R,5R)-1-{2-[3-(1,1-Difluorobutyl)-7,7-dimethyl-5H,6H,7H-pyrrolo[3,2-]pyridazin-5-yl]-2-oxoethyl}-5-methylpiperazin-2-yl]methyl}-5,6-dimethylmorpholin-3-one] | < 1000 |
| C[C@@H]1CN(CC(=O)N2CC(C)(C)c3nnc(Cc4ccc(F)cc4F)cc32)[C@@H](CN2C[C@H](C)OCC2=O)CN1 [Example 52, (6S)-4-{[(2R,5R)-1-(2-{3-[(2,4-Difluorophenyl)methyl]-7,7-dimethyl-5H,6H,7H-pyrrolo[3,2-c]pyridazin-5-yl}-2-oxoethyl)-5-methylpiperazin-2-yl]methyl}-6-methylmorpholin-3-one] | < 1000 |
| CCCC(F)(F)c1cc2c(nn1)C(C)(C)CN2C(=O)CN1C[C@@H](C)NC[C@@H]1CN1C[C@H](C)OCC1=O [Example 57, (6S)-4-{[(2R,5R)-1-{2-[3-(1,1-Difluorobutyl)-7,7-dimethyl-5H,6H,7H-pyrrolo[3,2-c]pyridazin-5-yl]-2-oxoethyl}-5-methylpiperazin-2-yl]methyl}-6-methylmorpholin-3-one] | < 1000 |
| C[C@@H]1CN(CC(=O)N2CC(C)(C)c3cnc(Cc4ccc(F)cc4F)cc32)[C@@H](CN2Cc3ncccc3C2=O)CN1 [Example 63, 6-{[(2R,5R)-1-(2-{6-[(2,4-Difluorophenyl)methyl]-3,3-dimethyl-1H,2H,3H-pyrrolo[3,2-c]pyridin-1-yl}-2-oxoethyl)-5-methylpiperazin-2-yl]methyl}-5H,6H,7H-pyrrolo[3,4-b]pyridin-5-one] | < 1000 |
| CCCC(F)(F)c1cc2c(nn1)C(C)(C)CN2C(=O)CN1C[C@@H](C)NC[C@@H]1CN1CC(C)(C)CC1=O [Example 55, 1-{[(2R,5R)-1-{2-[3-(1,1-Difluorobutyl)-7,7-dimethyl-5H,6H,7H-pyrrolo[3,2-c]pyridazin-5-yl]-2-oxoethyl}-5-methylpiperazin-2-yl]methyl}-4,4-dimethylpyrrolidin-2-one] | < 1000 |
| C[C@@H]1CN(CC(=O)N2CC(C)(C)c3ncc(Cc4ccc(F)cc4)cc32)[C@@H](CN2C[C@H](C)N(C)CC2=O)CN1 [Example 43, (5S)-1-{[(2R,5R)-1-(2-{6-[(4-Fluorophenyl)methyl]-3,3-dimethyl-1H,2H,3H-pyrrolo[3,2-b]pyridin-1-yl}-2-oxoethyl)-5-methylpiperazin-2-yl]methyl}-4,5-dimethylpiperazin-2-one dihydrochloride] | < 1000 |

Same assay, conditions: Homo sapiens; EVSA-T cell line, 72 hours, Alamar Blue; read-out: EVSA-T prolif

| Compound | EC50 [nM] |
| --- | --- |
| C[C@@H]1CN(CC(=O)N2CC(C)(C)c3nnc(Cc4ccc(F)cc4F)cc32)[C@@H](CN2Cc3ccc(C#N)cc3C2=O)CN1 [Example 114, 2-{[(2R,5R)-1-(2-{3-[(2,4-Difluorophenyl)methyl]-7,7-dimethyl-5H,6H,7H-pyrrolo[3,2-c]pyridazin-5-yl}-2-oxoethyl)-5-methylpiperazin-2-yl]methyl}-3-oxo-2,3-dihydro-1H-isoindole-5-carbonitrile dihydrochloride] | 1.4 |
| C[C@@H]1CN(CC(=O)N2CC(C)(C)c3ncc(Cc4ccc(F)cc4)cc32)[C@@H](CN2Cc3cccnc3C2=O)CN1 [Example 95, 6-{[(2R,5R)-1-(2-{6-[(4-Fluorophenyl)methyl]-3,3-dimethyl-1H,2H,3H-pyrrolo[3,2-b]pyridin-1-yl}-2-oxoethyl)-5-methylpiperazin-2-yl]methyl}-5H,6H,7H-pyrrolo[3,4-b]pyridin-7-one dihydrochloride] | 0.71 |
| C[C@@H]1CN(CC(=O)N2CC(C)(C)c3nnc(Cc4ccc(F)cc4F)cc32)[C@@H](CN2Cc3ccccc3C2=O)CN1 [Example 79, 2-{[(2R,5R)-1-(2-{3-[(2,4-Difluorophenyl)methyl]-7,7-dimethyl-5H,6H,7H-pyrrolo[3,2-c]pyridazin-5-yl}-2-oxoethyl)-5-methylpiperazin-2-yl]methyl}-2,3-dihydro-1H-isoindol-1-one dihydrochloride] | 0.2 |
| C[C@@H]1CN(CC(=O)N2CC(C)(C)c3ncc(Cc4ccc(F)cc4)cc32)[C@@H](CN2Cc3ncccc3C2=O)CN1 [Example 15, 6-{[(2R,5R)-1-(2-{6-[(4-Fluorophenyl)methyl]-3,3-dimethyl-1H,2H,3H-pyrrolo[3,2-b]pyridin-1-yl}-2-oxoethyl)-5-methylpiperazin-2-yl]methyl}-5H,6H,7H-pyrrolo[3,4-b]pyridin-5-onne dihydrochloride] | 0.63 |
| C[C@@H]1CN(CC(=O)N2CC(C)(C)c3nnc(Cc4ccc(F)cc4F)cc32)[C@@H](CN2Cc3c(F)cccc3C2=O)CN1 [Example 104, 2-{[(2R,5R)-1-(2-{3-[(2,4-Difluorophenyl)methyl]-7,7-dimethyl-5H,6H,7H-pyrrolo[3,2-c]pyridazin-5-yl}-2-oxoethyl)-5-methylpiperazin-2-yl]methyl}-4-fluoro-2,3-dihydro-1H-isoindol-1-one dihydrochloride] | 0.12 |
| COc1ccc2c(c1)CN(C[C@H]1CN[C@H](C)CN1CC(=O)N1CC(C)(C)c3ncc(Cc4ccc(F)cc4)cc31)C2=O [Example 94, 2-{[(2R,5R)-1-(2-{6-[(4-Fluorophenyl)methyl]-3,3-dimethyl-1H,2H,3H-pyrrolo[3,2-b]pyridin-1-yl}-2-oxoethyl)-5-methylpiperazin-2-yl]methyl}-5-methoxy-2,3-dihydro-1H-isoindol-1-one dihydrochloride] | 4.8 |
| C[C@@H]1CN(CC(=O)N2CC(C)(C)c3ncc(Cc4ccc(F)cc4F)cc32)[C@@H](CN2Cc3ccccc3C2=O)CN1 [Example 76, 2-{[(2R,5R)-1-(2-{6-[(2,4-Difluorophenyl)methyl]-3,3-dimethyl-1H,2H,3H-pyrrolo[3,2-b]pyridin-1-yl}-2-oxoethyl)-5-methylpiperazin-2-yl]methyl}-2,3-dihydro-1H-isoindol-1-one dihydrochloride] | 2.5 |
| C[C@@H]1CN(CC(=O)N2CC(C)(C)c3nnc(Cc4ccc(F)cc4)cc32)[C@@H](CN2Cc3ccccc3C2=O)CN1 [Example 61, 2-{[(2R,5R)-1-(2-{3-[(4-Fluorophenyl)methyl]-7,7-dimethyl-5H,6H,7H-pyrrolo[3,2-c]pyridazin-5-yl}-2-oxoethyl)-5-methylpiperazin-2-yl]methyl}-2,3-dihydro-1H-isoindol-1-one dihydrochloride] | 1.5 |
